Test results from patent US20070072810A1, “Agent for treating diabetes” (Takeda Pharmaceutical Company, Limited, priority 2003, published 2007).

Tests used:
[1] = test system: N-STZ-1.5 rat (model of type 2 diabetes with sulfonylurea secondary failure); assay: Oral glucose loading in N-STZ-1.5 rats with sulfonylurea secondary failure (Experimental Example 1); type: in vivo; conditions: for Increment of plasma insulin level: rats pretreated with glibenclamide for 4 weeks; for plasma glucose level-lowering effect (in words) / plasma insulin level-elevating effect (in words): type 2 diabetic rat with sulfonylurea secondary failure; for plasma glucose level-lowering effect (in words): summary of Table 1; for plasma insulin level-elevating effect (in words): summary of Table 2 and Table 3
Experimental: (§1) Streptozocin (STZ) (120 mg/kg bodyweight) was administered to a 1.5-day-old male WKY rat to obtain a type 2 diabetes model, N-STZ-1.5 rat.
N-STZ-1.5 rats (male, 24 animals) received orally glibenclamide (10 mg/kg bodyweight/day) for 4 weeks to become a model of type 2 diabetes with sulfonylurea secondary failure. Then, the rats were divided into 4 groups of Groups A to D (6 animals each).
Then, each rat received orally 1 g/kg bodyweight of glucose solution. Before administration of glucose (before and after administration of the test compound) and 10 and 60 minutes after administration of glucose solution, blood samples were taken from the caudal vein of the rat and then the plasma glucose level and the plasma insulin level were determined.
The plasma glucose level was determined by an enzymatic method using L type WakoGlu2 (trade name, Wako Pure Chemical Industries, Ltd.), and the plasma insulin level was determined by radioimmunoassay using Shionoria Insulin Kit (trade name, Shionogi & Co., Ltd.).
The increment of plasma glucose level 60 minutes after administration of glucose solution (from 0 to 60 minutes after sugar loading); the increment of plasma insulin level 10 minutes after administration of glucose solution (from before administration of the test compound to 10 minutes after sugar loading); and the increment of plasma insulin level 10 minutes after administration of glucose solution (from 0 to 60 minutes after sugar loading) are shown in Table 1, Table 2 and Table 3, respectively. The values in the tables are mean values (n=6).

[2] = test system: N-STZ-1.5 rat (type 2 diabetes model); assay: Oral glucose loading in N-STZ-1.5 rats after 4 weeks of methylcellulose (Group M) or glibenclamide (Group G) (Experimental Example 2); type: in vivo; conditions: for Increment of plasma insulin level / Increment of plasma glucose level: oral glibenclamide 10 mg/kg, mean, n=6; for Increment of plasma insulin level: 10 minutes after oral glucose 1 g/kg (from 0 to 60 minutes after sugar loading); for Increment of plasma glucose level: 60 minutes after oral glucose 1 g/kg; for plasma glucose level-lowering effect (in words): summary of Table 4; for plasma insulin level-elevating effect (in words): summary of Table 5
Experimental: as §1
N-STZ-1.5 rats (male, 24 animals) prepared in Experimental Example 1 were divided into 4 groups (6 animals each), of which 2 groups (hereinafter sometimes referred to as Group M) and the remaining 2 groups (hereinafter sometimes referred to as Group G) received orally a 0.5% methylcellulose suspension and glibenclamide (10 mg/kg bodyweight) respectively, for 4 weeks. After repeated administration for 4 weeks, one Group M and one Group G (control groups) received orally a 0.5% methylcellulose suspension and the other Group M and the other Group G received orally glibenclamide (10 mg/kg bodyweight).
Then, each rat received orally 1 g/kg bodyweight of glucose solution. Before administration of glucose solution and 10 and 60 minutes after the administration, blood samples were taken from the caudal vein of the rat and then the plasma glucose level and the plasma insulin level were determined.
The plasma glucose level and the plasma insulin level were determined in the same manner as in Experimental Example 1.
The increment of plasma glucose level 60 minutes after administration of glucose solution (from 0 to 60 minutes after sugar loading) and the increment of plasma insulin level 10 minutes after administration of glucose solution (from 0 to 60 minutes after sugar loading) are shown in Table 4 and Table 5, respectively. The values in the tables are mean values (n=6).

[3] = 10 minutes after oral glucose 1 g/kg (from before administration of the test compound to 10 min after sugar loading), oral glibenclamide 10 mg/kg, nateglinide 50 mg/kg, Compound A 3 mg/kg, mean, n=6
[4] = Group G (glibenclamide 10 mg/kg for 4 weeks)
[5] = Group M (0.5% methylcellulose for 4 weeks)

SMILES | Increment of plasma insulin level ([1]; 10 minutes after oral glucose 1 g/kg (from 0 to 60 minutes after sugar loading), oral glibenclamide 10 mg/kg, nateglinide 50 mg/kg, Compound A 3 mg/kg, mean, n=6) [μU/ml] | Increment of plasma insulin level [1, 3] [μU/ml] | Increment of plasma glucose level ([1]; 60 minutes after oral glucose 1 g/kg (0 to 60 min after sugar loading), rats pretreated with glibenclamide 10 mg/kg/day for 4 weeks, oral glibenclamide 10 mg/kg, nateglinide 50 mg/kg, Compound A 3 mg/kg, mean, n=6) [mg/dL] | plasma glucose level-lowering effect (in words) [1] | plasma insulin level-elevating effect (in words) [1] | Increment of plasma insulin level [2, 4] [μU/ml] | Increment of plasma glucose level [2, 4] [mg/dL] | plasma glucose level-lowering effect (in words) ([2]; Group G) | plasma insulin level-elevating effect (in words) ([2]; Group G) | Increment of plasma insulin level [2, 5] [μU/ml] | Increment of plasma glucose level [2, 5] [mg/dL] | plasma glucose level-lowering effect (in words) ([2]; Group M) | plasma insulin level-elevating effect (in words) ([2]; Group M)
CC(C)[C@H]1CC[C@H](C(=O)N[C@H](Cc2ccccc2)C(=O)O)CC1 [nateglinide] | 16.78 | 18.76 | 185.95 | no plasma glucose level-lowering effect | hardly plasma insulin level-elevating effect |  |  |  |  |  |  |  | 
COc1ccc(Cl)cc1C(=O)NCCc1ccc(S(=O)(=O)NC(=O)NC2CCCCC2)cc1 [glibenclamide] |  | 18.03 |  | no plasma glucose level-lowering effect | hardly plasma insulin level-elevating effect | 22.76 | 180.65 | the effect was not shown | the effect was not shown | 49.70 | 51.72 | showed plasma glucose level-lowering effect | showed plasma insulin level-elevating effect
